Experiment [1] is described as follows: (§1) MMV: Anti-babesial activity assay. Parasite pRBCs at 1% parasitemia were cultivated in 100 ul with 96-well plates at 2.5% and 5% hematocrits. The parasites were cultivated in triplicate for 4 days without replacement of the medium for each concentration of the compound. Type of experiment: functional, Babesia bovis.
The nature of experiment [2]: as §1. Type of experiment: functional, Babesia bigemina.
A short description of experiment [3]: as §1. Type of experiment: functional, Babesia equi.
A short description of experiment [4]: as §1. Type of experiment: functional, Babesia caballi.

Some results are limits rather than exact numbers.

As to `O=C(NCC(c1ccsc1)N1CCCCCC1)c1ccc(C(F)(F)F)cc1` (stereo unspecified), the IC50 in experiment [1] turned out to be 18.2 µM; in experiment [2] it was 13.6 µM; in experiment [3] it was 18.1 µM; in experiment [4], 10 µM.
The corresponding values for `CC1(c2ccccc2)Nc2ccccc2-c2nc3ccccc3n21` (stereo unspecified) are 13.8 µM, 10 µM, 1 µM and 0.08 µM.
The corresponding values for `COc1ccc2c(c1)C1(Nc3ccccc3-c3nc4ccccc4n31)C(=O)N2` (stereo unspecified) are 16.8 µM, 14.2 µM, 3.52 µM and 3.9 µM.
The corresponding values for `CN(C)CCCNCc1ccc(-c2ccc(F)c(Cl)c2)o1` are 2.45 µM, 4.61 µM, 4.09 µM and 0.69 µM.
Take `O=C(NCCCN1CCC(N2CCCCC2)CC1)C1=Cc2cc(Br)ccc2OC1`: the IC50 in experiment [1] is 1 µM; in experiment [2], 0.08 µM; in experiment [3], 5.09 µM; in experiment [4], 4.13 µM.
The corresponding values for `CCOc1cc2c(cc1OCC)C(c1cc(Cl)ccc1O)NCC2` (stereo unspecified) are 1.06 µM, 10 µM, 1.4 µM and 0.33 µM.
In the case of `CCCCOC(=O)c1ccc(Nc2cc(C)nc3ccc(OC)cc23)cc1`, the concentration for half-maximal inhibition (IC50) was found to be 22.7 µM in experiment [1], 10 µM in experiment [2], 18.1 µM in experiment [3] and 17.8 µM in experiment [4].
For the compound `CC(C)(C)c1ccc2c(c1)CN(Cc1ccc(Cl)cc1)CO2`, the IC50 in experiment [1] was 16.5 µM; in experiment [2], over 25 µM; in experiment [3], 12.8 µM; in experiment [4], 5.9 µM.
The corresponding values for `COc1ccc2nc(C)cc(Nc3cccc(O)c3)c2c1` are 13.4 µM, 25 µM, 4.19 µM and over 25 µM.
The corresponding values for `O=C(NCc1ccco1)C1CCN(S(=O)(=O)c2ccc(Br)cc2)CC1` are 17 µM, over 25 µM, 14.3 µM and over 25 µM.
The corresponding values for `Cc1cccc(-n2ncc3c(O)nc(-n4nc(C)cc4NC(=O)c4cc5ccccc5o4)nc32)c1` are 4.48 µM, 0.41 µM, 0.47 µM and 0.073 µM.
Take `O=c1c2c([nH]c3ccccc13)CCCC2`: the IC50 came to 2.45 µM in experiment [1], 5.93 µM in experiment [2], 4.27 µM in experiment [3] and 4.09 µM in experiment [4].
The corresponding values for `COc1ccc(Br)cc1C1Nc2ccc3ccccc3c2C2=C1C(=O)CC(c1ccccc1)C2` (stereo unspecified) are over 25 µM, 17.3 µM, over 25 µM and 13.1 µM.
The corresponding values for `CC1CCN(Cc2ccc(NC(=O)c3cc4ccc5cccnc5c4[nH]3)cc2)CC1` are 9.55 µM, 15.3 µM, 6.41 µM and 13.1 µM.
The corresponding values for `Cc1ccc(-c2cc3c(SCC(=O)Nc4cc(C(F)(F)F)ccc4Cl)nccn3n2)cc1` are 21.6 µM, 16.6 µM, 5.89 µM and 13.5 µM.
As for `COc1ccc(CCN2C(=O)c3[nH]nc(-c4cc(Cl)c(C)cc4O)c3C2c2ccccc2F)cc1` (stereo unspecified), the IC50 in experiment [1] was 5.9 µM; in experiment [2], 0.63 µM; in experiment [3] it was 7.65 µM; in experiment [4], 9.01 µM.
The corresponding values for `CCOc1ccc(N2C(N)=NC(N)=NC2(C)C)cc1` are 15.2 µM, 5.9 µM, 14 µM and 2.95 µM.
Regarding `O=C(CCc1ccco1)NC1CCN(CC2(c3ccc(Cl)cc3)CCC2)CC1`, the IC50 in experiment [1] was 5.06 µM; in experiment [2], 1.87 µM; in experiment [3], 3.39 µM; in experiment [4], over 25 µM.
The corresponding values for `Cc1c(C)n(CC(O)CNC2CCCCC2C)c2ccccc12` (stereo unspecified) are 0.1 µM, 4.09 µM, 4.76 µM and 2.49 µM.
The corresponding values for `CCC(c1ccccc1)c1nn2c(-c3cccs3)nnc2s1` (stereo unspecified) are 18.6 µM, 16.4 µM, 7.87 µM and 15.8 µM.
The corresponding values for `CCN(CC)CCCNc1nc(-c2ccc(Cl)cc2)nc2ccccc12` are 0.73 µM, 2.16 µM, 0.25 µM and 5.93 µM.
Turning to `FC(F)(F)c1cccc(CNC2CCN(CCc3ccccc3)CC2)c1`, the IC50 in experiment [1] was 15.6 µM; in experiment [2] it was 0.36 µM; in experiment [3], 1.87 µM; in experiment [4], 5.35 µM.
The corresponding values for `CCCC(c1nnnn1C1CCCCC1)N1CCN(C(=O)c2ccco2)CC1` (stereo unspecified) are 0.059 µM, 0.083 µM, 0.219 µM and 0.13 µM.
With `Cc1c(C)n(Cc2ccc(F)cc2)c2ccc(C(=O)NCc3ccco3)cc12`, the IC50 in experiment [1] was found to be 24.7 µM; in experiment [2], 0.288 µM; in experiment [3], 15.8 µM; in experiment [4], 10 µM.
The corresponding values for `Cc1ccc2c(C)nc(Nc3nc(C)cc(-c4ccccc4)n3)nc2c1` are 16.8 µM, 7.95 µM, 14.4 µM and 4.13 µM.
The corresponding values for `O=C(Nc1ccc(Cl)cc1C(=O)Nc1ccncc1)c1ccc(Cl)cc1Cl` are 10 µM, 19.7 µM, 3.61 µM and 5.64 µM.
The corresponding values for `CN1C=C(c2ccc3ccccc3n2)C(c2c[nH]c3ccccc23)c2ccccc21` (stereo unspecified) are 5.9 µM, 4.52 µM, 5.12 µM and 0.304 µM.
For `COc1cc(-c2nc(-c3ccccc3)c(-c3ccccc3)[nH]2)cc(OC)c1O`, the IC50 in experiment [1] stood at 8.03 µM; in experiment [2] it was 3.34 µM; in experiment [3] it was 12 µM; in experiment [4], 21.7 µM.
Consider `CCOc1cccc(C(=O)Nc2ccc(-c3nc4ccccc4[nH]3)cc2)c1`, for which the half-inhibitory concentration (IC50) was 17.2 µM in experiment [1], 5.64 µM in experiment [2], 10 µM in experiment [3] and 0.075 µM in experiment [4].
The corresponding values for `c1ccc2c(NCCCCCCNc3c4c(nc5ccccc35)CCCC4)c3c(nc2c1)CCCC3` are 0.99 µM, 2.17 µM, 0.5 µM and 6.31 µM.
The corresponding values for `Cc1ccc(OCCCCCCNCCO)c(C)c1` are 12.1 µM, 9.88 µM, 5.09 µM and 13.3 µM.
The corresponding values for `CCN(CC)c1cc(C)c2cc(NC(=O)c3cccc(OC)c3)ccc2n1` are 10 µM, 8.99 µM, 0.46 µM and 9.33 µM.
For `CN(C)c1ccc(N2C(N)=NC(N)=NC2(C)C)cc1`, the IC50 in experiment [1] was 1 µM; in experiment [2], 12.9 µM; in experiment [3] it was 10.1 µM; in experiment [4], 5.06 µM.
The corresponding values for `CC1CCN(Cc2c(O)ccc3cc(-c4nc5ccccc5s4)c(=O)oc23)CC1` are 6.9 µM, 5.5 µM, 4.27 µM and 3.73 µM.

(Values after ChEMBL document CHEMBL3301464, “MMV Malaria Box anti-babesial screening”.)
